In patent US10512691B2, “Systems and methods for targeted imaging and ablation of cardiac cells” (THE REGENTS OF THE UNIVERSITY OF MICHIGAN, priority 2012, dated 2019):
Read-outs that look alike come from different tables or passages of the source. Peptide text beside a SMILES is read from it.

How the values were obtained:
cardiac tissue [1] = assay: CTP transduction of cardiac tissue after peripheral intravenous injection; format: in vivo; conditions: 15 minutes post-peripheral intravenous injection in mice
Description: In some embodiments, nanoparticles comprise cardiac targeting moieties. In some embodiments, targeting moieties target myocytes. In some embodiments, the cardiac targeting moiety is cardiac targeting peptide (CTP) (Zahid et al., PloS one 2010; 5:e12252, herein incorporated by reference in its entirety). This peptide has the sequence […] (SEQ ID NO:1). In some embodiments, variants (e.g., sequence variants) of cardiac targeting peptide that retain the ability to specifically bind to myocytes are utilized. […] Thus, CTP is specific to the heart and cell type specific to myocytes. CTP also works in rat, and sheep and human (Zahid, et. al, supra).

cardiac tissue [2] = conditions: contemplated, citing Zahid et al.; cited from earlier work
[3] = In vivo blood stability of photosensitizer; conditions: action of blood reducing enzymes
Description: In vivo testing as described above was repeated with an improved CTP-Ce6-8-arm-PEG platform as described above.

[4] = known, when injected in blood; cited from earlier work

In the case of `CC(C)C[C@H](NC(=O)[C@H](Cc1c[nH]cn1)NC(=O)[C@H](Cc1c[nH]c2ccccc12)NC(=O)[C@@H]1CCCN1C(=O)[C@H](C)N)C(=O)N[C@@H](CO)C(=O)N[C@@H](CO)C(=O)N[C@@H](CCC(N)=O)C(=O)N[C@@H](Cc1ccc(O)cc1)C(=O)N[C@@H](CO)C(=O)N[C@@H](CCCNC(=N)N)C(=O)N[C@H](C(=O)O)[C@@H](C)O` [CTP] (H-APWHLSSQYSRT-OH; N-terminus and C-terminus assumed), the “transduction of cardiac tissue” value (cardiac tissue [1]) is given as “efficiently and specifically transduce cardiac tissue”, the “uptake in other organs” value (cardiac tissue [1]) is given as “No other organ showed uptake except kidney glomeruli, limited to the cortex, and rare lung capillaries” and the “time for CTP to reach the heart” value (cardiac tissue [2]) is given as “approximately 15 minutes”.

In the case of `CN(C)c1ccc2nc3ccc(=[N+](C)C)cc-3sc2c1` [methylene blue], the “stability in blood in vivo” value [3] is reported as “decreased in vivo”.

For chlorin e6 [Ce6], the “stability in blood in vivo” value [4] is given as “remain stable when injected in blood”.
